Assay results taken from ChEMBL document CHEMBL1649222, “In vitro antibacterial activity of acyl-lysyl oligomers against Helicobacter pylori” (Antimicrob Agents Chemother, 2009).
Values after ≈ are worked out from the molar mass of the structure shown. Values belong to the molecule of their own block, whether it stands above or below them. Active and inactive are the calls of the source. The rule behind the calls is not given here. Non-standard residues stand in square brackets, D forms with d. Residues, ends and D or L forms follow the SMILES beside them. *: point of attachment. Lauroyl = CCCCCCCCCCCC(=O)*; 12Ado = NCCCCCCCCCCCC(=O)O

How the values were obtained:
Helicobacter pylori [1] = experiment: Antimicrobial activity against Helicobacter pylori G27; assay type: functional
Helicobacter pylori [2] = experiment: Antimicrobial activity against Helicobacter pylori 7.13 at MBC by time-kill analysis; assay type: functional
Helicobacter pylori [3] = experiment: Antimicrobial activity against Helicobacter pylori G27 at MBC by time-kill analysis; assay type: functional
Helicobacter pylori [4] = experiment: Antimicrobial activity against Helicobacter pylori J99 at MBC by time-kill analysis; assay type: functional
[5] = Toxicity in horse erythrocytes assessed as hemolytic activity at 0.625 to 40 uM; assay type: cell-based, Equus caballus; conditions: erythrocyte
Helicobacter pylori [6] = experiment: Bactericidal activity against Helicobacter pylori 7.13 at 40 uM after 10 hrs; assay type: functional, organism-based
Helicobacter pylori [7] = experiment: Antimicrobial activity against Helicobacter pylori J99; assay type: functional
Helicobacter pylori [8] = experiment: Antimicrobial activity against Helicobacter pylori 7.13; assay type: functional
[9] = Toxicity in horse erythrocytes assessed as hemolytic activity at 80 uM; assay type: cell-based, Equus caballus; conditions: erythrocyte
Helicobacter pylori [10] = experiment: Bactericidal activity against Helicobacter pylori G27 preincubated at 37 degC for 1 hr; assay type: functional
Helicobacter pylori [11] = experiment: Bactericidal activity against Helicobacter pylori G27 at pH 6.9; assay type: functional
Helicobacter pylori [12] = experiment: Bactericidal activity against Helicobacter pylori G27 at pH 4.5; assay type: functional
Helicobacter pylori [13] = experiment: Antimicrobial activity against Helicobacter pylori G27 at 2 times MBC by time-kill analysis; assay type: functional
Helicobacter pylori [14] = experiment: Antimicrobial activity against Helicobacter pylori SS1; assay type: functional
[15] = Antimicrobial activity against Helicobacter pylori 26695; assay type: functional
Helicobacter pylori [16] = experiment: Antimicrobial activity against Helicobacter pylori J99 at 2 times MBC by time-kill analysis; assay type: functional
Helicobacter pylori [17] = experiment: Antimicrobial activity against Helicobacter pylori HPAG1; assay type: functional
Helicobacter pylori [18] = experiment: Bactericidal activity against Helicobacter pylori J99 at 40 uM after 10 hrs; assay type: functional
Helicobacter pylori [19] = experiment: Bactericidal activity against Helicobacter pylori G27 preincubated at 4 degC for 1 hr; assay type: functional
Helicobacter pylori [20] = experiment: Bactericidal activity against Helicobacter pylori G27 preincubated at 42 degC for 1 hr; assay type: functional
Helicobacter pylori [21] = experiment: Bactericidal activity against Helicobacter pylori G27 preincubated at 55 degC for 1 hr; assay type: functional
Helicobacter pylori [22] = experiment: Bactericidal activity against Helicobacter pylori G27 preincubated at 95 degC for 1 hr; assay type: functional
Helicobacter pylori [23] = experiment: Antimicrobial activity against Helicobacter pylori 7.13 at 2 times MBC by time-kill analysis; assay type: functional
Helicobacter pylori [24] = experiment: Bactericidal activity against Helicobacter pylori G27 preincubated at 50 degC for 1 hr; assay type: functional
Helicobacter pylori [25] = experiment: Bactericidal activity against Helicobacter pylori G27 preincubated at 60 degC for 1 hr; assay type: functional
Helicobacter pylori [26] = experiment: Bactericidal activity against Helicobacter pylori G27 at 40 uM after 10 hrs; assay type: functional

MIC (Helicobacter pylori [1]): 25 µM (≈ 41.9 µg/mL)
Structure (SMILES): CCCCCCCCCCCC(=O)N[C@@H](CCCCN)C(=O)NCCCCCCCC(=O)N[C@@H](CCCCN)C(=O)NCCCCCCCC(=O)N[C@@H](CCCCN)C(=O)NCCCCCCCC(=O)N[C@@H](CCCCN)C(=O)NCCCCCCCC(=O)N[C@@H](CCCCN)C(=O)NCCCCCCCC(=O)N[C@@H](CCCCN)C(N)=O
MBC (Helicobacter pylori [1]): > 100 µM

MIC (Helicobacter pylori [1]): 25 µM (≈ 55.3 µg/mL)
Structure (SMILES): CCCCCCCCCCCC(=O)N[C@@H](CCCCN)C(=O)NCCCCCCCC(=O)N[C@@H](CCCCN)C(=O)NCCCCCCCC(=O)N[C@@H](CCCCN)C(=O)NCCCCCCCC(=O)N[C@@H](CCCCN)C(=O)NCCCCCCCC(=O)N[C@@H](CCCCN)C(=O)NCCCCCCCC(=O)N[C@@H](CCCCN)C(=O)NCCCCCCCC(=O)N[C@@H](CCCCN)C(=O)NCCCCCCCC(=O)N[C@@H](CCCCN)C(N)=O
MBC (Helicobacter pylori [1]): > 100 µM

MIC (Helicobacter pylori [7]): 10.5 µM (≈ 13 µg/mL)
MIC (Helicobacter pylori [8]): < 9 µM
MIC (Helicobacter pylori [14]): 25.5 µM (≈ 31.5 µg/mL)
MIC [15]: 25 µM (≈ 30.9 µg/mL)
MIC (Helicobacter pylori [1]): 6.5 µM (≈ 8.03 µg/mL)
MIC (Helicobacter pylori [17]): 10.5 µM (≈ 13 µg/mL)
Structure (SMILES): CCCCCCCCCCCC(=O)N[C@@H](CCCCN)C(=O)N[C@@H](CCCCN)C(=O)NCCCCCCCCCCCC(=O)N[C@@H](CCCCN)C(=O)N[C@@H](CCCCN)C(=O)NCCCCCCCCCCCC(=O)N[C@@H](CCCCN)C(N)=O (Lauroyl-KK[12Ado]KK[12Ado]K-NH2)
Time (Helicobacter pylori [2]): 6.1 h
Time (Helicobacter pylori [3]): 6.1 h
Time (Helicobacter pylori [4]): 3.8 h
Activity [5]: Non-toxic
Activity (Helicobacter pylori [6]): Active
MBC (Helicobacter pylori [7]): 20 µM (≈ 24.7 µg/mL)
MBC (Helicobacter pylori [8]): 14.5 µM (≈ 17.9 µg/mL)
Activity [9]: Toxic
Activity (Helicobacter pylori [10]): Active
Activity (Helicobacter pylori [11]): Active
Activity (Helicobacter pylori [12]): inactive
Time (Helicobacter pylori [13]): 2.7 h
MBC (Helicobacter pylori [14]): 45 µM (≈ 55.6 µg/mL)
MBC [15]: 70 µM (≈ 86.4 µg/mL)
Time (Helicobacter pylori [16]): 1.8 h
MBC (Helicobacter pylori [1]): 15 µM (≈ 18.5 µg/mL)
MBC (Helicobacter pylori [17]): 40 µM (≈ 49.4 µg/mL)
Activity (Helicobacter pylori [18]): Active
Activity (Helicobacter pylori [19]): Active
Activity (Helicobacter pylori [20]): Active
Activity (Helicobacter pylori [21]): Active
Activity (Helicobacter pylori [22]): Active
Time (Helicobacter pylori [23]): 3.5 h
Activity (Helicobacter pylori [24]): Active
Activity (Helicobacter pylori [25]): Active
Activity (Helicobacter pylori [26]): Active
